Test results reported in article PMC6384738, “Structure-Function Studies of Polymyxin B Lipononapeptides” (Molecules, 2019).
≈ marks a conversion by molar mass, not a printed value. Where a SMILES comes first, the peptide text is derived from it. Bridges are numbered along the chain shown (N, C = ends). [ ]: non-standard residue; d: D form. The star is where a group is joined. Butanoyl(4-OPh) = O=C(CCCOc1ccccc1)*; Octanoyl = CCCCCCCC(=O)*; Dab = NCC[C@H](N)C(=O)O

Tests used:
A. baumannii ATCC 19606 = experiment: microbe, parasite or virus in culture; conditions: ATCC 19606, 18 h
Protocol: (§1) All compounds synthesised in this study were assessed for their minimum inhibitory concentrations (MIC, mg/L) by broth microdilution assay against five antibiotic-sensitive and resistant ATCC reference strains covering the Gram-negative ESKAPE pathogens (Escherichia coli, Klebsiella pneumoniae, A. baumannii, and P. aeruginosa) (Table 1, Table 2 and Table 3). Staphylococcus aureus was also included as a representative Gram-positive bacterial strain. […] Polymyxin B 1, colistin 2, vancomycin and gentamicin were used as positive inhibitor comparator compounds. Compounds were counter-screened against human proximal tubular epithelial cells (HK-2), using LDH release as a general indicator of cellular toxicity.

E. coli ATCC 25922 = experiment: microbe, parasite or virus in culture; conditions: ATCC 25922, 18 h
Protocol: as §1

[1] = test system: K. pneumoniae ATCC 700603; experiment: microbe, parasite or virus in culture; conditions: ATCC 700603, 18 h
Protocol: as §1

S. aureus ATCC 25923 = experiment: microbe, parasite or virus in culture; conditions: ATCC 25923, 18 h
Protocol: as §1

K. pneumoniae BAA 2146 = experiment: microbe, parasite or virus in culture; conditions: BAA 2146, 18 h
Protocol: as §1

P. aeruginosa ATTC 27853 = experiment: microbe, parasite or virus in culture; conditions: ATTC 27853, 18 h
Protocol: as §1

K. pneumoniae ATCC 13833 = experiment: microbe, parasite or virus in culture; conditions: ATCC 13833, 18 h
Protocol: as §1

in vitro = conditions: human
Protocol: as §1
Cytotoxicity to human kidney proximal tubular epithelial cell line, HK-2 (ATCC CRL-2190, sourced from ATCC; Manassas, VA, USA) was determined using the LDH assay as previously described. In brief, HK-2 cells were seeded as 2000 cells/well in black-walled clear bottom 384-well tissue culture treated plates (Corning, catalogue No. 3712) in DMEM/F12 medium (Gibco® 10565-042) containing 10% of Fetal Bovine Serum (FBS, Gibco® 10099-141) and incubated for 24 h at 37 °C, 5% CO2. Compounds were then added into each well with a concentration series from 300 µM to 2.3 µM in 2-fold dilutions. Colistin and polymyxin B were used as controls and tested at a final concentration range of 1 mM to 7.8 µM. The cells were incubated with the compounds for 24 h at 37 °C, 5% CO2. After the incubation, 5 µL of culture medium was added to 45 µL of LDH assay buffer (Biovision, K313-500) and incubated for 30 min at room temperature. The absorbance (ABS) was then read at 450 nm using a Polar Star Omega plate reader. The data was analysed by Prism 6 software (GraphPad Software, La Jolla, CA, USA). Results were calculated using the following equation: cytotoxicity %= (ABSsamples − ABSuntreated/ABS1%Triton X-100 − ABSuntreated) × 100.

SMILES: CCCCCCCC(=O)N[C@H](C(=O)N[C@@H](Cc1c[nH]c2ccccc12)C(=O)N[C@H]1CCNC(=O)[C@H]([C@@H](C)O)NC(=O)[C@H](CCN)NC(=O)[C@H](CCN)NC(=O)[C@H](CC(C)C)NC(=O)[C@@H](Cc2ccccc2)NC(=O)[C@H](CCN)NC1=O)[C@@H](C)O [Compound 46] (Octanoyl-TW[Dab][Dab][dF]L[Dab][Dab]T; lactam 3-C)
- MIC A. baumannii ATCC 19606 (A. baumannii ATCC 19606): >32 mg/L
- MIC E. coli ATCC 25922 (E. coli ATCC 25922): >32 mg/L
- MIC K. pneumoniae ATCC 700603 [1]: 32 mg/L (≈ 27.2 µM)
- MIC S. aureus ATCC 25923 (S. aureus ATCC 25923): >32 mg/L
- MIC K. pneumoniae BAA 2146 (K. pneumoniae BAA 2146): >32 mg/L
- MIC P. aeruginosa ATTC 27853 (P. aeruginosa ATTC 27853): >32 mg/L
- MIC K. pneumoniae ATCC 13833 (K. pneumoniae ATCC 13833): >32 mg/L
- CC50 at 24 h (in vitro): > 300 µM

SMILES: CC(C)C[C@@H]1NC(=O)[C@@H](Cc2ccccc2)NC(=O)[C@H](CCN)NC(=O)[C@@H](NC(=O)CNC(=O)[C@@H](NC(=O)CCCOc2ccccc2)[C@@H](C)O)CCNC(=O)[C@H]([C@@H](C)O)NC(=O)[C@H](CCN)NC(=O)[C@H](CCN)NC1=O [Compound 51] ({Butanoyl(4-OPh)}-TG[Dab][Dab][dF]L[Dab][Dab]T; lactam 3-C)
- MIC A. baumannii ATCC 19606 (A. baumannii ATCC 19606): 16 mg/L (≈ 14.8 µM)
- MIC E. coli ATCC 25922 (E. coli ATCC 25922): 2 mg/L (≈ 1.85 µM)
- MIC K. pneumoniae ATCC 700603 [1]: 16 mg/L (≈ 14.8 µM)
- MIC S. aureus ATCC 25923 (S. aureus ATCC 25923): >32 mg/L
- MIC K. pneumoniae BAA 2146 (K. pneumoniae BAA 2146): 4 mg/L (≈ 3.7 µM)
- MIC P. aeruginosa ATTC 27853 (P. aeruginosa ATTC 27853): 8 mg/L (≈ 7.39 µM)
- MIC K. pneumoniae ATCC 13833 (K. pneumoniae ATCC 13833): >32 mg/L
- CC50 at 24 h (in vitro): > 300 µM

SMILES: CC(C)C[C@@H]1NC(=O)[C@@H](Cc2ccccc2)NC(=O)[C@H](CCN)NC(=O)[C@@H](NC(=O)[C@H](CCN)NC(=O)[C@@H](N)[C@@H](C)O)CCNC(=O)[C@H]([C@@H](C)O)NC(=O)[C@H](CCN)NC(=O)[C@H](CCN)NC1=O [PMBN, polymyxin B nonapeptide, reference compound] (H-T[Dab][Dab][Dab][dF]L[Dab][Dab]T; lactam 3-C (inferred))
- MIC A. baumannii ATCC 19606 (A. baumannii ATCC 19606): >32 mg/L
- MIC E. coli ATCC 25922 (E. coli ATCC 25922): >32 mg/L
- MIC K. pneumoniae ATCC 700603 [1]: >32 mg/L
- MIC S. aureus ATCC 25923 (S. aureus ATCC 25923): >32 mg/L
- MIC K. pneumoniae BAA 2146 (K. pneumoniae BAA 2146): >32 mg/L
- MIC P. aeruginosa ATTC 27853 (P. aeruginosa ATTC 27853): 2 mg/L (≈ 2.08 µM)
- MIC K. pneumoniae ATCC 13833 (K. pneumoniae ATCC 13833): >32 mg/L
- CC50 at 24 h (in vitro): > 300 µM

SMILES: CCCCCCCC(=O)N[C@H](C(=O)N[C@H](Cc1c[nH]cn1)C(=O)N[C@H]1CCNC(=O)[C@H]([C@@H](C)O)NC(=O)[C@H](CCN)NC(=O)[C@H](CCN)NC(=O)[C@H](CC(C)C)NC(=O)[C@@H](Cc2ccccc2)NC(=O)[C@H](CCN)NC1=O)[C@@H](C)O [Compound 48] (Octanoyl-T[dH][Dab][Dab][dF]L[Dab][Dab]T; lactam 3-C)
- MIC A. baumannii ATCC 19606 (A. baumannii ATCC 19606): 4 mg/L (≈ 3.55 µM)
- MIC E. coli ATCC 25922 (E. coli ATCC 25922): 2 mg/L (≈ 1.78 µM)
- MIC K. pneumoniae ATCC 700603 [1]: 4 mg/L (≈ 3.55 µM)
- MIC S. aureus ATCC 25923 (S. aureus ATCC 25923): >32 mg/L
- MIC K. pneumoniae BAA 2146 (K. pneumoniae BAA 2146): 4 mg/L (≈ 3.55 µM)
- MIC P. aeruginosa ATTC 27853 (P. aeruginosa ATTC 27853): 16 mg/L (≈ 14.2 µM)
- MIC K. pneumoniae ATCC 13833 (K. pneumoniae ATCC 13833): 4 mg/L (≈ 3.55 µM)
- CC50 at 24 h (in vitro): > 300 µM
